From PubChem BioAssay AID248 (DTP/NCI, 2004)
Where “and” joins values, the source holds several entries; their conditions need not be identical. Identical values can stand only once. Toxic doses and inconclusive results are not listed. No stated cut-off is given here; in the data, active means T/C of 150% or more; inactive means T/C below 125%.

System: L1210 leukemia ip in BDF1 mice, survival T/C
Assay: NCI In Vivo Anticancer Drug Screen. Data for tumor model L1210 Leukemia (intraperitoneal) in B6D2F1 (BDF1) mice
Details: endpoint: mean survival time, higher = longer survival
Method in brief: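 Antitumor effect is assessed in tumor-bearing animals. Survival in the compound arm is compared with a vehicle-dosed control arm and expressed as their quotient.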

[1] = dose: 100.0 mg/kg/injection, schedule: Q04DX003 (ip), vehicle: Klucel (hydroxypropylcellulose) (HPC)
[2] = dose: 200.0 mg/kg/injection, schedule: Q04DX003 (ip), vehicle: Klucel (hydroxypropylcellulose) (HPC)
[3] = dose: 400.0 mg/kg/injection, schedule: Q04DX003 (ip), vehicle: Klucel (hydroxypropylcellulose) (HPC)
[4] = dose: 100.0 mg/kg/injection, schedule: Q04DX003 (ip), vehicle: saline with Tween-80
[5] = dose: 200.0 mg/kg/injection, schedule: Q04DX003 (ip), vehicle: saline with Tween-80
[6] = dose: 100.0 mg/kg/injection, schedule: Q04DX002 (ip), vehicle: Klucel (hydroxypropylcellulose) (HPC)
[7] = dose: 400.0 mg/kg/injection, schedule: Q04DX002 (ip), vehicle: Klucel (hydroxypropylcellulose) (HPC)
[8] = dose: 75.0 mg/kg/injection, schedule: Q01DX001 (ip), vehicle: other
[9] = dose: 100.0 mg/kg/injection, schedule: Q01DX001 (ip), vehicle: Klucel (hydroxypropylcellulose) (HPC)
[10] = dose: 200.0 mg/kg/injection, schedule: Q01DX001 (ip), vehicle: Klucel (hydroxypropylcellulose) (HPC)
[11] = dose: 400.0 mg/kg/injection, schedule: Q01DX001 (ip), vehicle: Klucel (hydroxypropylcellulose) (HPC)
[12] = dose: 100.0 mg/kg/injection, schedule: Q01DX009 (ip), vehicle: saline with Tween-80
[13] = dose: 100.0 mg/kg/injection, schedule: Q04DX003 (ip), vehicle: saline
[14] = dose: 200.0 mg/kg/injection, schedule: Q01DX009 (ip), vehicle: saline with Tween-80
[15] = dose: 200.0 mg/kg/injection, schedule: Q04DX003 (ip), vehicle: saline
[16] = dose: 200.0 mg/kg/injection, schedule: Q04DX002 (ip), vehicle: Klucel (hydroxypropylcellulose) (HPC)
[17] = dose: 100.0 mg/kg/injection, schedule: Q04DX002 (ip), vehicle: saline with Tween-80
[18] = dose: 200.0 mg/kg/injection, schedule: Q04DX002 (ip), vehicle: saline with Tween-80
[19] = dose: 400.0 mg/kg/injection, schedule: Q04DX002 (ip), vehicle: saline with Tween-80

Measured: T/C

NN(c1ccccc1)c1ccc2ccccc2c1
inactive: dose: 50.0 mg/kg/injection, schedule: Q01DX009 (ip), vehicle: Klucel (hydroxypropylcellulose) (HPC) 115 % of control | dose: 100.0 mg/kg/injection, schedule: Q01DX009 (ip), vehicle: Klucel (hydroxypropylcellulose) (HPC) 100 % of control | [1] 93 % of control | dose: 200.0 mg/kg/injection, schedule: Q01DX009 (ip), vehicle: Klucel (hydroxypropylcellulose) (HPC) 103 % of control | [2] 93 % of control | [3] 86 % of control

CCCCCCCCC(=O)N(C)OC
inactive: [4] 93 % of control | [5] 93 % of control

COc1ccc(-n2c(=O)c(N=Nc3ccc(Br)cc3)c(O)n(-c3ccccc3C)c2=S)cc1
inactive: dose: 75.0 mg/kg/injection, schedule: Q04DX003 (ip), vehicle: Klucel (hydroxypropylcellulose) (HPC) 98 % of control | dose: 150.0 mg/kg/injection, schedule: Q04DX003 (ip), vehicle: Klucel (hydroxypropylcellulose) (HPC) 104 % of control | dose: 300.0 mg/kg/injection, schedule: Q04DX003 (ip), vehicle: Klucel (hydroxypropylcellulose) (HPC) 107 % of control

O=S(=O)(O)C(O)CC(c1ccccc1)S(=O)(=O)O (centres undefined)
inactive: [6] 106 % of control | [7] 98 % of control

Clc1ccc2nc3nc(-c4ccccc4)c(-c4ccccc4)nc3nc2c1
inactive: [8] 98 % of control | dose: 150.0 mg/kg/injection, schedule: Q01DX001 (ip), vehicle: other 98 % of control | dose: 300.0 mg/kg/injection, schedule: Q01DX001 (ip), vehicle: other 96 % of control

O=C(NCP(=O)(O)O)c1cccnc1
inactive: dose: 100.0 mg/kg/injection, schedule: Q04DX003 (ip), vehicle: saline sonified 94 % of control | dose: 200.0 mg/kg/injection, schedule: Q04DX003 (ip), vehicle: saline sonified 100 % of control | dose: 400.0 mg/kg/injection, schedule: Q04DX003 (ip), vehicle: saline sonified 102 % of control

COc1cc(C=C(C#N)C#N)cc(OC)c1OC
inactive: dose: 25.0 mg/kg/injection, schedule: Q04DX002 (ip), vehicle: gum acacia 100 % of control | dose: 50.0 mg/kg/injection, schedule: Q04DX002 (ip), vehicle: gum acacia 110 % of control | dose: 100.0 mg/kg/injection, schedule: Q04DX002 (ip), vehicle: gum acacia 122 % of control and 91 % of control

NC(N)=N/N=C(C(=O)O)/C(=N\N=C(N)N)C(=O)O
inactive: dose: 30.0 mg/kg/injection, schedule: Q01DX Z (oral), vehicle: carboxymethylcellulose (CMC) 101 % of control | dose: 60.0 mg/kg/injection, schedule: Q01DX Z (oral), vehicle: carboxymethylcellulose (CMC) 101 % of control | dose: 120.0 mg/kg/injection, schedule: Q01DX Z (oral), vehicle: carboxymethylcellulose (CMC) 101 % of control | dose: 240.0 mg/kg/injection, schedule: Q01DX Z (oral), vehicle: carboxymethylcellulose (CMC) 109 % of control | dose: 480.0 mg/kg/injection, schedule: Q01DX Z (oral), vehicle: carboxymethylcellulose (CMC) 106 % of control | dose: 960.0 mg/kg/injection, schedule: Q01DX Z (oral), vehicle: carboxymethylcellulose (CMC) 106 % of control

CN(C)c1ccc(/C=C(\C#N)c2nc3ccccc3[nH]2)cc1
inactive: [9] 96 % of control | [1] 91 % of control | [10] 99 % of control | [2] 94 % of control | [11] 96 % of control | [3] 93 % of control

CCOC(=O)c1cc(C)nnc1C(=O)OCC
inactive: [12] 104 % of control | dose: 100.0 mg/kg/injection, schedule: Q01DX009 (ip), vehicle: saline 100 % of control | [4] 97 % of control | [13] 107 % of control | [14] 104 % of control | dose: 200.0 mg/kg/injection, schedule: Q01DX009 (ip), vehicle: saline 103 % of control | [5] 106 % of control | [15] 112 % of control | dose: 400.0 mg/kg/injection, schedule: Q01DX009 (ip), vehicle: saline with Tween-80 103 % of control | dose: 400.0 mg/kg/injection, schedule: Q01DX009 (ip), vehicle: saline 101 % of control | dose: 400.0 mg/kg/injection, schedule: Q04DX003 (ip), vehicle: saline with Tween-80 101 % of control | dose: 400.0 mg/kg/injection, schedule: Q04DX003 (ip), vehicle: saline 98 % of control

O=C(O)c1cc(=O)c2cccc(Cl)c2[nH]1
inactive: dose: 50.0 mg/kg/injection, schedule: Q04DX002 (ip), vehicle: Klucel (hydroxypropylcellulose) (HPC) 103 % of control | [6] 100 % of control | [16] 96 % of control

NC(C(=O)O)C(N)(CC(=O)O)C(=O)O (centres undefined)
inactive: [17] 94 % of control | [18] 94 % of control | [19] 105 % of control

C#CCN(C)C(=O)Nc1ccccc1
inactive: [17] 91 % of control | [18] 91 % of control | [19] 113 % of control

CCOC(=O)C(C#N)=C(C)C
inactive: [8] 103 % of control | dose: 100.0 mg/kg/injection, schedule: Q01DX001 (ip), vehicle: saline 97 % of control | [13] 97 % of control | [15] 94 % of control

CC1CCC2(O)C(O)CCCC2(C)C1C (centres undefined)
inactive: dose: 50.0 mg/kg/injection, schedule: Q01DX009 (ip), vehicle: saline with Tween-80 92 % of control | [12] 89 % of control | [14] 92 % of control

CCCC(N=Cc1ccccc1O)C(=O)O.CCCC(N=Cc1ccccc1O)C(=O)O.[Fe] (centres undefined)
inactive: dose: 25.0 mg/kg/injection, schedule: Q01DX009 (ip), vehicle: saline 95 % of control | dose: 25.0 mg/kg/injection, schedule: Q04DX003 (ip), vehicle: saline 98 % of control | dose: 50.0 mg/kg/injection, schedule: Q01DX009 (ip), vehicle: saline 93 % of control | dose: 50.0 mg/kg/injection, schedule: Q04DX003 (ip), vehicle: saline 98 % of control | [13] 96 % of control and 98 % of control

COc1ccc(Cl)cc1-c1c(C(=O)O)cccc1[N+](=O)[O-]
inactive: dose: 100.0 mg/kg/injection, schedule: Q01DX001 (ip), vehicle: gum acacia 108 % of control | dose: 100.0 mg/kg/injection, schedule: Q04DX003 (ip), vehicle: gum acacia 102 % of control | dose: 200.0 mg/kg/injection, schedule: Q01DX001 (ip), vehicle: gum acacia 102 % of control | dose: 200.0 mg/kg/injection, schedule: Q04DX003 (ip), vehicle: gum acacia 102 % of control | dose: 400.0 mg/kg/injection, schedule: Q01DX001 (ip), vehicle: gum acacia 102 % of control | dose: 400.0 mg/kg/injection, schedule: Q04DX003 (ip), vehicle: gum acacia 90 % of control

CCOC(=O)/C(C#N)=C(\CCCCc1ccccc1)CC(C)C
inactive: [17] 101 % of control | [18] 92 % of control | [19] 104 % of control

Nc1nc(-c2ccccc2)c(CCCOc2ccccc2)c(=O)[nH]1
inactive: dose: 12.5 mg/kg/injection, schedule: Q01DX009 (ip), vehicle: gum acacia 95 % of control | dose: 25.0 mg/kg/injection, schedule: Q01DX009 (ip), vehicle: gum acacia 109 % of control | dose: 50.0 mg/kg/injection, schedule: Q01DX009 (ip), vehicle: gum acacia 100 % of control | dose: 100.0 mg/kg/injection, schedule: Q01DX009 (ip), vehicle: gum acacia 92 % of control and 90 % of control | dose: 400.0 mg/kg/injection, schedule: Q01DX009 (ip), vehicle: gum acacia 96 % of control

O=C1NCCc2c1sc1ccccc21
inactive: dose: 100.0 mg/kg/injection, schedule: Q01DX001 (ip), vehicle: carboxymethylcellulose (CMC) 95 % of control | dose: 400.0 mg/kg/injection, schedule: Q01DX001 (ip), vehicle: carboxymethylcellulose (CMC) 90 % of control

O=C1OC(c2cccc(Cl)c2)=N/C1=C\c1ccc(Cl)cc1
inactive: [6] 100 % of control | [16] 92 % of control | [7] 92 % of control

CC(C)(C)C1=CC(=O)C(N2C3C4CCC(C4)C32)=C(N2C3C4CCC(C4)C32)C1=O (centres undefined)
inactive: [9] 96 % of control | [10] 94 % of control | [11] 87 % of control
